Experimental data: patent US8158621B2, “Methods of treating or preventing autoimmune diseases with 2,4-pyrimidinediamine compounds” (Rigel Pharmaceuticals, Inc., priority 2002, dated 2012)
Values joined by “and” are separate entries in the source; they are usually repeats but may differ in a detail not shown here. Identical values can stand only once.

Tests used:
[1] = system: differentiated human macrophages; assay: Macrophage activation, IgG stimulation: IL-6; type: cell-based; settings: stimulus (IgG or LPS) not given; read-out: Monocytes/Macrophage IL-6 IC50
Protocol: CD 14+ monocytes were purified from PBMC (Allcells # PB002) using the Monocyte Isolation kit (Miltenyi biotec #130-045-501) as per the manufacturer's instructions. Purity was assessed by measuring the percentage of CD14+ cells by flow cytometry. Typically >90% purity is achieved. The purified CD14+ cells are then plated out (6×10^6 cells/150 cm TC dish in 15 mls media) in Macrophage-SFM (Gibco #12065-074) with 100 ng/ml of M-CSF (Pepro Tech #300-25) and allowed to differentiate for five days. At the end of that period, cell morphology and cell surface markers (CD14, HLA-DR, B7.1, B7.2, CD64, CD32, and CD16) reflected the presence of mature differentiated macrophage.
(§1) A negative control consisting of the F(ab′)2 fragment was also coated to assess background stimulation. Unbound antibody was washed away 2× with 200 ul PBS. 20 ul of 5× compound was added to each well, followed by the addition 15 k cells of differentiated macrophage in 80 uL that had been scraped off of the plates. The cells were incubated for 16 hr in a 37° C. incubator, and supernatants were collected for Luminex analysis for IL-6 and TNFα, essentially as described for the primary T-cells, above.
Varied concentrations of compound were compared to solvent only to determine the IC50 of each compound for each cytokine Representative IC50 s for 2,4-pyrimidinediamine compounds of the invention are shown in Table 11.

[2] = system: cultured human mast cells (CHMC); assay: CHMC low cell density IgE activation: tryptase assay; type: cell-based
Outline: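 Supernatant tryptase activity, assayed with substrate for 30 min at room temperature, served as the degranulation measure. Mast cells (1000-1500 per well depending on donor) sat 1 hr at 37° C in MT before a 30 min anti-IgE challenge at 37° C.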

[3] = system: bone marrow derived mast cells (BMMC); assay: BMMC high cell density IgE activation: TNFalpha; type: cell-based, mouse; settings: high cell density; read-out: BMMC anti-IgE TNF-alpha
Protocol: (§2) After sensitizing, cells are counted, pelleted (1000 rpm, 5-10 minutes), and resuspended at 1-3×10^6 cells/ml in MT buffer. Add 100 ul of cell suspension to each well and 100 ul of compound dilutions. The final vehicle concentration is 0.5% DMSO. Incubate at 37° C. (5% CO2) for 1 hour. After 1 hour of compound treatment, stimulate cells with 6× stimulus (60 ng/ml DNP-BSA). Mix wells with the cells and allow plates to incubate at 37° C. (5% CO2) for one hour. After 1 hour incubation, pellet cells (10 minutes, 1000 RPM) and collect 200 ul per well of the supernatant, being careful not to disturb pellet, and transfer to a clean tube or 96-well plate. Place the supernatant plate on ice. During the 4-5 hour step (see next) perform the hexosiminidase assay. Resuspend cell pellet in 240 ul WEI-conditioned media containing 0.5% DMSO and corresponding concentration of compound. Incubate BMMC cells for 4-5 hours at 37° C. (5% CO2). After incubation, pellet cells (1000 RPM, 10 minutes) and collect 225 ul per well and place in −80° C. until ready to perform ELISAS. ELISAS are performed on appropriately diluted samples (determined empirically for each donor cell population so that the sample measurement falls within the standard curve) following the supplier's instructions.

[4] = system: differentiated human macrophages; assay: Macrophage activation, IgG stimulation: TNF; type: cell-based; settings: stimulus (IgG or LPS) not given; read-out: Monocytes/Macrophage TNF IC50
Protocol: Purity was assessed by measuring the percentage of CD14+ cells by flow cytometry.
as §1, with “20 ul of 5× compound was added to each well, followed by the addition 15 k cells of differentiated macrophage in 80 uL that had been scraped off of the plates.” left out

[5] = system: bone marrow derived mast cells (BMMC); assay: BMMC high cell density IgE activation: hexosaminidase; type: cell-based, mouse; settings: high cell density; read-out: BMMC anti-IgE Hexos.
[6] = system: Human Jurkat T-cells (clone N); assay: Jurkat T-cell activation (anti-TCR, CD69 upregulation); type: cell-based
Outline: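 Readout is CD69 upregulation by flow cytometry (anti-CD69-APC, 20 min at 4 °C) after 20 h anti-TCR (C305, 500 ng/ml) stimulation at 37 °C.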

Syk kinase = target: T1, Syk kinase (Homo sapiens, UniProt P43405); assay: Syk kinase biochemical fluorescence polarization assay; settings: isolated Syk kinase, fluorescence polarization, 4 uM ATP
T1 construct: purchased Upstate, Lake Placid NY

[7] = system: bone marrow derived mast cells (BMMC); assay: BMMC high cell density IgE activation: IL-6; type: cell-based, mouse; settings: high cell density; read-out: BMMC anti-IgE IL-6
Protocol: as §2

[8] = system: cultured human mast cells (CHMC); assay: CHMC low cell density ionomycin activation: tryptase assay; type: cell-based
[9] = system: cultured human mast cells (CHMC); assay: CHMC high cell density IgE activation: TNFalpha; type: cell-based; settings: read-out: CHMC high density TNF-alpha
Protocol: (§3) After sensitizing, cells are counted, pelleted (1000 rpm, 5-10 minutes), and resuspended at 1-2 ×10^6 cells/ml in MT buffer. Add 100 ul of cell suspension to each well and 100 ul of compound dilutions. The final vehicle concentration is 0.5% DMSO. Incubate at 37° C. (5% CO2) for 1 hour. After 1 hour of compound treatment, stimulate cells with 6× anti-IgE. Mix wells with the cells and allow plates to incubate at 37° C. (5% CO2) for one hour. After 1 hour incubation, pellet cells (10 minutes, 1000 RPM) and collect 200 ul per well of the supernatant, being careful not to disturb pellet. Place the supernatant plate on ice. During the 7-hour step (see next) perform tryptase assay on supernatant that had been diluted 1:500. Resuspend cell pellet in 240 ul of CM media containing 0.5% DMSO and corresponding concentration of compound. Incubate CHMC cells for 7 hours at 37° C. (5% CO2). After incubation, pellet cells (1000 RPM, 10 minutes) and collect 225 ul per well and place in −80° C. until ready to perform ELISAS. ELISAS are performed on appropriately diluted samples (determined empirically for each donor cell population so that the sample measurement falls within the standard curve) following the supplier's instructions.

[10] = system: cultured human mast cells (CHMC); assay: CHMC high cell density IgE activation: hexos; type: cell-based
Protocol: as §3
Add 50 uL of BMMC cell supernatant (see above) to the hexoseaminidase substrate, place at 37° C. for 30 minutes and read the plate at 5, 10, 15, and 30 minutes on a spectrophotometer.

[11] = system: cultured human mast cells (CHMC); assay: CHMC high cell density IgE activation: tryptase; type: cell-based
Protocol: as §3

Jurkat cells = assay: Jurkat toxicity, Cell Titer Glo assay; type: cell-based, human
Protocol: Seed 50 μl cells (1×10^6/ml) into each well containing 50 μl compound. […] Shake plates for 1 minute to mix cells and compound. Incubate plates at 37° C. […] Next day, harvest 50 μl cells from each well, add to 50 μl Cell Titer Glo reagent ([…]). Shake plates for 1 minute. Read on luminometer.

[12] = system: cultured human mast cells (CHMC); assay: CHMC low cell density IgE activation: LTC4 assay; type: cell-based; settings: anti-IgE activation, LTC4 release
Protocol: Pellet CHMC cells (980 rpm, 10 min) and resuspend in pre-warmed MT. Add 65 ul of cells to each 96-well plate. Depending on the degranulation activity for each particular CHMC donor, load 1000-1500 cells/well. Mix four times followed by a 1 hr incubation at 37° C. […] Stimulate cells by adding 25 ul of 6× anti-IgE solution to the appropriate plates. Add 25 ul MT to un-stimulated control wells. Mix twice following addition of the anti-IgE. Incubate at 37° C. for 30 minutes. […] Spin plates at 1000 rpm for 10 min to pellet cells. Transfer 25 ul of supernatant to a 96-well black bottom plate and add 100 ul of freshly diluted tryptase substrate solution to each well. Incubate plates at room temperature for 30 min.
Leukotriene C4 (LTC4) is also quantified using an ELISA kit on appropriately diluted supernatant samples (determined empirically for each donor cell population so that the sample measurement falls within the standard curve) following the supplier's instructions.

[13] = system: cultured human mast cells (CHMC); assay: CHMC high cell density IgE activation: histamine; type: cell-based
Protocol: as §3

[14] = system: cultured human mast cells (CHMC); assay: CHMC high cell density IgE activation: LTC4; type: cell-based
Protocol: as §3

[15] = Mouse Reverse Passive Arthus reaction (RPA reaction); type: in vivo, C57BL/6 mice; settings: oral, 200 mg/kg
Outline: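 C57BL/6 mice dosed with compound before challenge, pretreatment time set by each compound's PK; rabbit anti-OVA IgG (50 μg/mouse) given intradermally, then ovalbumin 20 mg/kg i.v. with 1% Evans blue. Dorsal skin edema and hemorrhage read by dye extravasation at 4 h; purified polyclonal rabbit IgG as control.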

Primary human B-cells = assay: Primary B-cell activation (α-IgM, CD69 upregulation); type: cell-based; settings: read-out: 1° B-Cell CD69 IC50
Protocol: Primary human B-cells were isolated from buffy coat, the white cell layer that forms between the red cells and the […] when anti-coagulated blood is centrifuged, or from fresh blood using CD19-Dynal® beads and a FACS. Buffy coat was obtained from the Stanford Medical School Blood Centre, prepared on the same day by the blood bank, stored and transported cold (with ice). The buffy coat (approx 35 mL) was placed in a 500 mL conical sterile centrifuge pot and cooled on ice, then diluted with cold PBS containing 0.2% BSA (Sigma: A7638) and sodium citrate (0.1%, Sigma: S-5570) (P—B—C) to a total volume of 200 mL and mixed gently. Fresh blood was collected from donors in 10 mL vacutainers containing heparin (1 vacutainer collects approximately 8.5 mL blood). The blood was cooled on ice, transferred into 50 mL falcon tubes (20 mL/tube) or a 500 mL conical sterile centrifuge pot, and diluted with an equal volume P—B—C.
25 mL diluted blood or buffy coat was layered onto 15 mL cold ficoll and placed back on ice. The ficoll layered blood was centrifuged (Beckman GS-6R) for 45 minutes at 2000 rpm, 4° C. to separate the Peripheral Blood Mononuclear Cells (PBMC) from the Red Blood Cells (RBC) and granulocytes. The top aqueous layer was then aspirated until 1 inch above the PBMC layer. The PBMCs were transferred from every 2 ficoll tubes into one clean 50 mL falcon tube (=approx 10 mL/tube). The transferred PBMCs were diluted 5× with icecold PBS with 0.2% BSA (P—B) and centrifuged for 20 min at 1400 rpm and 4° C. The supernatant (this may be cloudy) was then aspirated and the PBMCs resuspended into 25 mL P—B and the cells counted (using a 1:5 dilution) and kept on ice.
The cells were then positively selected using anti-CD 19 antibody coupled to magnetic beads (Dynal®) as per manufacturer's instructions. The approximate required amount of CD19-Dynal® beads (CD19-coated dyna beads M-450 (pabB), Dynal®) was calculated by estimating the number of B-cells as 5% of PBMCs counted and adding approximately10 beads per cell from the bead stock (4×10^8 beads/mL). The CD19-Dynal® beads were washed 2× in P—B in a 5 mL tube using the Dynal® magnet, then added into the suspended PBMCs. This mixture was then passed through the Dynal® magnet and washed several times to separate the bead-bound cells.
After separation, the beads and antibody were removed using Dynal® CD19-DETACHaBEAD® for 45 min at 30° C. Yield is typically 2×10^7 B-cells per buffy coat. B-cells were washed and resuspended as 1E6 cells/mL in RPMI1640+10% FBS+Penicillin/[…]+1 ng/mL IFNα8. Cells were rested overnight at 37° C. and 5% CO2.
The following day, cells were washed and resuspended in RPMI+2.5% FBS to 1×10^6 cells/mL. Cells were then aliquoted into a V-bottom 96-well plate (Corning) at 65 uL cells per well. By robot, 65 uL of a 2× compound was added to the cells with final concentration of DMSO at 0.2%, and incubated for 1 hr at 37° C. Cells were then stimulated with 20 uL 7.5× α-IgM from Jackson laboratories (final 5 ug/mL) for 24 hrs. At day 3, the cells were spun down and stained for CD69 and analyzed by FACS gated on the live cells (by light scatter).
Varied concentrations of compound were compared to solvent only to determine the inhibition of B-cell activation IC50 of each compound.

[16] = low cell density, read-out: CHMC anti-IgE Tryptase
[17] = low cell density, read-out: CHMC Ionomycin Tryptase

IC50 [1]	IC50 [2, 16]	IC50 [3]	IC50 [4]	IC50 [5]	IC50 [6]	IC50 (Syk kinase)	IC50 [7]	IC50 [8, 17]	Compound	other results
97 nM	37 nM	5 nM	86 nM	30 nM	86 nM	3 nM	10 nM	40000 nM	Cn1ncc2ccc(Nc3ncc(F)c(Nc4ccc5c(c4)NC(=O)C(C)(C)O5)n3)cc21 [Compound R940366]	–
–	–	–	–	–	3520 nM	–	–	–	CNC(=O)c1cc2cc(Nc3ncc(F)c(Nc4cccc(O)c4)n3)ccc2o1 [Compound R926493]	IC50 ([2]; Low Density CHMC, anti-IgE activation, tryptase release, read-out: CHMC anti-IgE Tryptase IC50): 250 nM; IC50 [9]: > 2000 nM; IC50 [10]: 889 nM; IC50 [11]: 1090 nM; IC50 (Jurkat cells): > 4330 nM; IC50 [12]: 78 nM; IC50 ([8]; Low Density CHMC, ionomycin activation, tryptase release, read-out: CHMC Ionomycin Tryptase IC50): 9180 nM; IC50 [13]: 1320 nM; IC50 [14]: 474 nM
7620 nM	305 nM	110 nM	4370 nM	590 nM	–	421 nM	250 nM	8300 nM	COc1ccc(Nc2nc(Nc3ccc4cc[nH]c4c3)ncc2F)cc1Cl [Compound R926976]	–
942 nM	–	–	1140 nM	–	1550 nM	–	–	–	CNC(=O)COc1cccc(Nc2ncc(F)c(Nc3ccc(OC)c(Cl)c3)n2)c1 [Compound R926891]	inhibition of edema formation ([15]; 60 minutes prior to challenge): 54.9%; % inhibition to vehicle control Edema Size ± SEM ([15]; pretreatment time 0.5 hrs): 44.8 ± 3.0%; % inhibition to vehicle control Edema Size ± SEM ([15]; pretreatment time 1 hrs): 46.2 ± 4.1% and 54.9%; % inhibition to vehicle control Edema Size ± SEM ([15]; pretreatment time 1.5 hrs): 28.1 ± 10.6%; IC50 (Primary human B-cells): 803 nM
